Results published in ChEMBL document CHEMBL1147507, “Preliminary in vitro studies on two potent, water-soluble trimethoprim analogues with exceptional species selectivity against dihydrofolate reductase from Pneumocystis carinii and Mycobacterium avium” (Bioorg Med Chem Lett, 2004).

Experiments:
[1] = molecular target: T1, Bifunctional dihydrofolate reductase-thymidylate synthase (Toxoplasma gondii, UniProt Q07422)
T1 sequence (Q07422 whole entry): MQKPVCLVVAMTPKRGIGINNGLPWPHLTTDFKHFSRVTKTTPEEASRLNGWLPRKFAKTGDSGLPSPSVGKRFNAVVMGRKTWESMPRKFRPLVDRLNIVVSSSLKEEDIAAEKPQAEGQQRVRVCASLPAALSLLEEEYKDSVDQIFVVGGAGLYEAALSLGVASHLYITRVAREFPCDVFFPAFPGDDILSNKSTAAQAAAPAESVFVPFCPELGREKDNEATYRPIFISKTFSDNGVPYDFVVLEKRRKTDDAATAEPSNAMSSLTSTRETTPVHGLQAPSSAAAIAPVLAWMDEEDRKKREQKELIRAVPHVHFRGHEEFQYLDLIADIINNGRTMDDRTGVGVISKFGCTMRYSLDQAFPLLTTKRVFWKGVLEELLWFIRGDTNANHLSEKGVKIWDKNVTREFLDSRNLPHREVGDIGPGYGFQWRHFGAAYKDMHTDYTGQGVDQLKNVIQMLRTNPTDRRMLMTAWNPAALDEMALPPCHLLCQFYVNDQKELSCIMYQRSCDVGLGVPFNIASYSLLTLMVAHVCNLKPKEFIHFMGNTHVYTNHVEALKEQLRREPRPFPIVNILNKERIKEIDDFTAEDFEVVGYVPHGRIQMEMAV
Description: Inhibitory concentration against Toxoplasma gondii dihydrofolate reductase

[2] = Selectivity index was determined as ratio of IC50 against rat DHFR to that of IC50 against Pneumocystis carinii DHFR
Dihydrofolate reductase [3] = molecular target: T2, Dihydrofolate reductase (Rattus norvegicus, UniProt Q920D2)
T2 sequence (Q920D2 whole entry): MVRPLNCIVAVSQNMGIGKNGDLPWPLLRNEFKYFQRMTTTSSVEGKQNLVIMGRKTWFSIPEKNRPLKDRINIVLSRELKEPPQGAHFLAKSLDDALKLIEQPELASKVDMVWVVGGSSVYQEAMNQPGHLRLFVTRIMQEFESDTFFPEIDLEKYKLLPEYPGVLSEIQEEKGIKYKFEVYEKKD
Description: Inhibitory activity against rat dihydrofolate reductase

[4] = Selectivity index was determined as ratio of IC50 against rat DHFR to that of IC50 against Toxoplasma gondii DHFR
Dihydrofolate reductase [5] = molecular target: T3, Dihydrofolate reductase (Pneumocystis carinii, UniProt P16184)
T3 sequence (P16184 whole entry): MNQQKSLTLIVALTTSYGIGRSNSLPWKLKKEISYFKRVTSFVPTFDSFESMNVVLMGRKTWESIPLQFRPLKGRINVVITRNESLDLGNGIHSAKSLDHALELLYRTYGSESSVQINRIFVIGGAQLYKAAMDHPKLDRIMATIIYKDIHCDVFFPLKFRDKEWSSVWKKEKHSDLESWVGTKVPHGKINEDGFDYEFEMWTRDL
Description: Inhibitory concentration against Pneumocystis carinii dihydrofolate reductase

Dihydrofolate reductase [6] = molecular target: T4, Dihydrofolate reductase (Mycobacterium avium, UniProt O30463)
T4 sequence (O30463 whole entry): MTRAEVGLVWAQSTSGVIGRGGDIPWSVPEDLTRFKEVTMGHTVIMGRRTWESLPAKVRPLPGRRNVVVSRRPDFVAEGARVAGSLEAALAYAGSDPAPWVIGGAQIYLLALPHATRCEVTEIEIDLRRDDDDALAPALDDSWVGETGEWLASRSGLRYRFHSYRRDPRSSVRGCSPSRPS
Description: Inhibitory concentration against Mycobacterium avium dihydrofolate reductase

[7] = Selectivity index was determined as ratio of IC50 against rat DHFR to that of IC50 against Mycobacterium avium DHFR

| Structure (SMILES) | IC50 [1] [nM] | Ratio [2] | IC50 (Dihydrofolate reductase [3]) [nM] | Ratio [4] | IC50 (Dihydrofolate reductase [5]) [nM] | IC50 (Dihydrofolate reductase [6]) [nM] | Ratio [7] |
| --- | --- | --- | --- | --- | --- | --- | --- |
| COc1cc(Cc2cnc(N)nc2N)cc(C#Cc2ccc(C(=O)O)cc2)c1OC | 420 | 73 | 88000 | 210 | 1200 | 8.2 | 11000 |
| COc1ccc(C#Cc2ccc(C(=O)O)cc2)cc1Cc1cnc(N)nc1N | – | 6.3 | – | 24 | – | – | 2200 |
| COc1cc(Cc2cnc(N)nc2N)cc(C#CCCCC(=O)O)c1OC | – | – | 5000 | – | – | – | – |
